In patent US20230293573A1 (priority 2020, published 2023):
Values after ≈ are worked out from the molar mass of the structure shown. Where two headings read alike, the source gives them in different places.

Experiments:
SARS-CoV-2 [1] = test: Anti-SARS-CoV-2 efficacy in Vero cells (Jeon et al. 2020); type: cell-based; conditions: Severe acute respiratory syndrome coronavirus 2, Vero; for IC90: read-out: IC90 against SARS-CoV-2
SARS-CoV-2 [2] = test: microbe, parasite or virus in culture; type: cell-based; conditions: Severe acute respiratory syndrome coronavirus 2; Gassen et al. (2020); read-out: IC50 against SARS-CoV-2
[3] = tested on: prostate cancer cell (PC-3); test: Inhibitory efficacy against prostate cancer cell PC-3; type: cell-based; conditions: estimated from dose-efficacy curve, FIG. 7
SARS-CoV-2 [4] = conditions: Gassen et al. (2020); read-out: IC50 against SARS-CoV-2; cited from earlier work
[5] = cited from earlier work
[6] = phosphate buffer, depending on temperature of measurement; cited from earlier work
[7] = cited from earlier work; remark: listed apart in the source
TMEM16F/Anoctamin6 = target: T1, TMEM16F/Anoctamin6 (Homo sapiens, UniProt Q4KMQ2); conditions: Spike-expressing cells; cited from earlier work
T1 sequence (Q4KMQ2 1-910): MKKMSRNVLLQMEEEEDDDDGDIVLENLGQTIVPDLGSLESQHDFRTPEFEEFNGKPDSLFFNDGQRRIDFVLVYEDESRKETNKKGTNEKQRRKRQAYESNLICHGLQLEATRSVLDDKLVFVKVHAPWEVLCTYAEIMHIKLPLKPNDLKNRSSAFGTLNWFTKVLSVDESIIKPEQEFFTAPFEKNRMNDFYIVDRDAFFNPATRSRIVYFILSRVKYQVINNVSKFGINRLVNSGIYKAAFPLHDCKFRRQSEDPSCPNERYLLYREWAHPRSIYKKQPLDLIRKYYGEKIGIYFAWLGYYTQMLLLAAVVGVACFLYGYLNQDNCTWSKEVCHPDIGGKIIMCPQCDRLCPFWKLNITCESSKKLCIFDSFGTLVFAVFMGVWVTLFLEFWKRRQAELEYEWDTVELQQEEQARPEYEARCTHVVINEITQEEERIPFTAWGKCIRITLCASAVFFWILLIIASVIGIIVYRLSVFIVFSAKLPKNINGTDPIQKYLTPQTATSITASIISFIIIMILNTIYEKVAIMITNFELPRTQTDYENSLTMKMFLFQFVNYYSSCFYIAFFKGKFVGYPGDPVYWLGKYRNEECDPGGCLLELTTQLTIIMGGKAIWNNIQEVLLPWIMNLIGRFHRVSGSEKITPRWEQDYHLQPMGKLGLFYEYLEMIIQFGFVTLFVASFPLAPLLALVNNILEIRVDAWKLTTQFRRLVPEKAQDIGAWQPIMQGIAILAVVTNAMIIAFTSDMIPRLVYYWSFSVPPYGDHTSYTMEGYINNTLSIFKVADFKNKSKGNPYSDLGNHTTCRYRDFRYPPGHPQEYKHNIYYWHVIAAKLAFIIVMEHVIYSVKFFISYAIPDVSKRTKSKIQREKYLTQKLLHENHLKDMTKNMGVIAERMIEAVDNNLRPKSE

[8] = rats, single oral dose 5 mg/kg, dissolved in DMSO/cremophor EL/water 3/15/82; cited from earlier work
[9] = Solubilization and dispersion of niclosamide by OHPP; conditions: 2.5 mg/mL niclosamide in phosphate buffer

## O=C(Nc1ccc([N+](=O)[O-])cc1Cl)c1cc(Cl)ccc1O [niclosamide, 2′,5-Dichloro-4′-nitrosalicylanilide]
SARS-CoV-2 [1]; read from FIG. 2 (Jeon et al. 2020)
  IC90: ~700 nM
SARS-CoV-2 [1]; read-out: IC50 against SARS-CoV-2
  IC50: 0.092 µg/mL (≈ 0.281 µM)
SARS-CoV-2 [1]
  IC90: ~0.229 µg/mL
SARS-CoV-2 [2]
  IC50: 0.056 µg/mL (≈ 0.171 µM)
[3]
  IC50: 5.93 µg/mL (≈ 18.1 µM)
SARS-CoV-2 [4]
  IC50: 170 nM
[5]; 500 mg TID
  maximal plasma concentration: 35.7 to 182 ng/mL
[5]; 500 or 1000 mg TID oral, 4 weeks
  side effects: mostly associated with the GI tract
[5]; 500 or 1000 mg TID, 4 weeks
  maximal plasma concentration, highest level reached: 182 ng/mL
[6]
  solubility: 0.3 to 1.14 µg/mL
[7]
  BCS solubility: low solubility
[7]; delMoral-Sanchez et al., 2019
  solubility definition: practically insoluble
TMEM16F/Anoctamin6
  effect on calcium oscillations and membrane conductances through TMEM16F: markedly blunted calcium oscillations and membrane conductances
[8]
  highest plasma concentration (Cmax): 354 ± 152 ng/mL
[9]
  appearance of dispersion: did not dissolve and showed heavy clouds and precipitates
